Experiments:
[1] = tested on: antibodies in sera from SARS patients (sera 1a, 1b, 2, 6, 37, 62, London, SARS-yellow, SARS-green); type: binding, human; set-up: Binding of serum 6 to linear peptides of protein X1 of SARS-CoV Urbani / Binding of serum 37 to linear peptides of protein X1 of SARS-CoV Urbani / Binding of serum 6 to looped/cyclic peptide (PEPSCAN-ELISA) / Binding of serum 37 to looped/cyclic peptide (PEPSCAN-ELISA) / Binding of serum 37 to looped/cyclic peptides of protein X1 of SARS-CoV Urbani / Binding of serum 6 to linear peptides of protein X2 / Binding of serum 37 to linear peptides of protein X2 / Binding of serum 37 to looped/cyclic peptides of protein X2 of SARS-CoV Urbani / Binding of serum 6 to linear peptides of protein M of SARS-CoV Urbani / Binding of serum 37 to linear peptides of protein M of SARS-CoV Urbani / Binding of serum 6 to looped/cyclic peptides of protein M of SARS-CoV Urbani / Binding of serum 37 to looped/cyclic peptides of protein M of SARS-CoV Urbani / Binding of serum 6 to linear peptides of protein X3 of SARS-CoV Urbani / Binding of serum 37 to linear peptides of protein X3 of SARS-CoV Urbani / Binding of serum 37 to looped/cyclic peptides of protein X3 of SARS-CoV Urbani / Binding of serum 6 to linear peptides of protein X4 of SARS-CoV Urbani / Binding of serum 37 to linear peptides of protein X4 of SARS-CoV Urbani / Binding of serum 37 to looped/cyclic peptides of protein X4 of SARS-CoV Urbani / Binding of serum 6 to linear peptides of protein X5 of SARS-CoV Urbani / Binding of serum 37 to linear peptides of protein X5 of SARS-CoV Urbani / Binding of serum 37 to looped/cyclic peptides of protein X5 of SARS-CoV Urbani / Binding of serum 6 to linear peptides of protein N of SARS-CoV Urbani / Binding of serum 37 to linear peptides of protein N of SARS-CoV Urbani / Binding of serum 6 to linear peptide (PEPSCAN-ELISA) / Binding of serum 1a to looped/cyclic peptides of protein N of SARS-CoV Urbani / Binding of serum 1b to looped/cyclic peptides of protein N of SARS-CoV Urbani / Binding of serum 2 to looped/cyclic peptides of protein N of SARS-CoV Urbani / Binding of serum 6 to looped/cyclic peptides of protein N of SARS-CoV Urbani / Binding of serum 37 to looped/cyclic peptides of protein N of SARS-CoV Urbani / Binding of serum 62 to looped/cyclic peptides of protein N of SARS-CoV Urbani / Binding of serum London to looped/cyclic peptides of protein N of SARS-CoV Urbani / Binding of serum SARS-green to looped/cyclic peptides of protein N of SARS-CoV Urbani: unit not given here
[2] = tested on: control sera (pooled serum of ten healthy LUMC hospital workers; commercial negative donor pooled serum from the Dutch bloodbank); type: binding, human; set-up: Binding of Control serum LUMC to linear peptides / Binding of Control serum Blood-bank to linear peptides / Binding of Control serum LUMC to looped peptides / Binding of Control Serum Blood-Bank to Looped peptides / Binding of Control serum LUMC to linear peptides of the protein M of SARS-CoV Urbani / Binding of Control serum Blood-bank to linear peptides of the protein M of SARS-CoV Urbani / Binding of Control serum LUMC to looped peptides of the protein M of SARS-CoV Urbani / Binding of Control Serum Blood-Bank to Looped peptides of the protein M of SARS-CoV Urbani: unit not given here
[3] = tested on: rabbit serum obtained by immunizing a rabbit with the SARS-CoV strain Frankfurt 1; type: binding; set-up: Binding of a rabbit serum to linear peptides / Binding of a rabbit serum to looped peptides / Rabbit serum linear peptides / Rabbit serum looped peptides / Binding of a rabbit serum to linear peptides of protein N of SARS-CoV Urbani (Rabbit serum linear peptides) / Binding of a rabbit serum to looped/cyclic peptides of protein N of SARS-CoV Urbani (Rabbit serum looped peptides): unit not given here
[4] = tested on: recombinant human anti-SARS-CoV antibody 03-018; type: binding; set-up: Binding of antibody 03-018 to linear peptides of the N protein of SARS-CoV Urbani / Binding of antibody 03-018 to looped/cyclic peptides of the N protein of SARS-CoV Urbani: unit not given here

Row | Sequence | Binding of serum 1a to linear peptides of protein N of SARS-CoV Urbani [1] | Binding of serum 1a to looped/cyclic peptides of protein N of SARS-CoV Urbani [1] | Binding of serum 1b to linear peptides of protein N of SARS-CoV Urbani [1] | Binding of serum 1b to looped/cyclic peptides of protein N of SARS-CoV Urbani [1] | Binding of serum 2 to linear peptides of protein N of SARS-CoV Urbani [1] | Binding of serum 2 to looped/cyclic peptides of protein N of SARS-CoV Urbani [1] | Binding of serum 6 to linear peptides of protein N of SARS-CoV Urbani [1] | Binding of serum 6 to looped/cyclic peptides of protein N of SARS-CoV Urbani [1] | Binding of serum 37 to linear peptides of protein N of SARS-CoV Urbani [1] | Binding of serum 37 to looped/cyclic peptides of protein N of SARS-CoV Urbani [1] | Binding of serum 62 to linear peptides of protein N of SARS-CoV Urbani [1] | Binding of serum 62 to looped/cyclic peptides of protein N of SARS-CoV Urbani [1] | Binding of serum London to linear peptides of protein N of SARS-CoV Urbani [1] | Binding of serum London to looped/cyclic peptides of protein N of SARS-CoV Urbani [1] | Binding of serum SARS-green to looped/cyclic peptides of protein N of SARS-CoV Urbani [1] | Binding of serum SARS-yellow to looped/cyclic peptides of protein N of SARS-CoV Urbani [1] | Binding of a rabbit serum to linear peptides of protein N of SARS-CoV Urbani (Rabbit serum linear peptides) [3] | Binding of a rabbit serum to looped/cyclic peptides of protein N of SARS-CoV Urbani (Rabbit serum looped peptides) [3] | Binding of antibody 03-018 to linear peptides of the N protein of SARS-CoV Urbani [4] | Binding of antibody 03-018 to looped/cyclic peptides of the N protein of SARS-CoV Urbani [4] | also measured
1 | FYYLGTGPEASLPYG | 0.3 | 0.4 | 0.1 | 0.3 | 0.2 | 0.4 | 0.2 | 0.2 | 0.6 | 0.7 | 0.7 | 0.6 | 0.5 | 0.5 | 0.4 | 0.7 | 0.1 | 0.6 | 0.1 | 0.2 | Binding of serum SARS-green to linear peptides of protein N of SARS-CoV Urbani [1]: 0.4; Binding of serum SARS-yellow to linear peptides of protein N of SARS-CoV Urbani [1]: 0.7; Binding of Control Serum Blood-Bank to Looped peptides [2]: 0.7; Binding of Control serum Blood-bank to linear peptides [2]: 0.6; Binding of Control serum LUMC to linear peptides [2]: 0.7; Binding of Control serum LUMC to looped peptides [2]: 0.7
2 | AAEASKKPRQKRTAT | – | 0.2 | – | 0.1 | – | 0.2 | – | 0.1 | – | 0.4 | – | 0.3 | – | 0.3 | 0.1 | 0.2 | 0.3 | 0.5 | 0.1 | 0.2 | Recognition of the peptide by sera of SARS-CoV infected individuals, and form (linear, looped/cyclic) in which it is recognized [1]: recognized in linear form; Binding of Control Serum Blood-Bank to Looped peptides [2]: 0.5; Binding of Control serum Blood-bank to linear peptides [2]: 0.8; Binding of Control serum LUMC to linear peptides [2]: 0.9; Binding of Control serum LUMC to looped peptides [2]: 0.5
3 | GMEVTPSGTWLTYHG | 0.3 | 0.4 | 0.1 | 0.2 | 0.1 | 0.4 | 0.2 | 0.3 | 0.5 | 0.7 | 0.6 | 0.8 | 0.5 | 0.5 | 0.4 | 0.5 | 0.1 | 0.4 | 0.1 | 0.2 | Binding of serum SARS-green to linear peptides of protein N of SARS-CoV Urbani [1]: 0.2; Binding of serum SARS-yellow to linear peptides of protein N of SARS-CoV Urbani [1]: 0.7; Control Serum Blood-Bank Looped peptides [2]: 0.7; Control serum Blood-bank linear peptides [2]: 0.6; Control serum LUMC linear peptides [2]: 0.6; Control serum LUMC looped peptides [2]: 0.7
4 | TFPPTEPKKDKKKKT | 0.2 | 0.2 | 0.1 | 0.1 | 0.9 | 0.3 | 0.3 | 0.1 | 0.8 | 0.4 | 0.8 | 0.4 | 0.5 | 0.3 | 0.1 | 0.3 | 0.2 | 0.3 | 0.1 | 0.2 | Binding of serum SARS-green to linear peptides of protein N of SARS-CoV Urbani [1]: 0.3; Binding of serum SARS-yellow to linear peptides of protein N of SARS-CoV Urbani [1]: 0.9; Control Serum Blood-Bank Looped peptides [2]: 0.5; Control serum Blood-bank linear peptides [2]: 0.6; Control serum LUMC linear peptides [2]: 0.7; Control serum LUMC looped peptides [2]: 0.4
5 | SGKGQQQQGQTVTKK | – | 0.3 | – | 0.2 | – | 0.3 | – | 0.3 | – | 0.6 | – | 0.5 | – | 0.4 | 0.2 | 0.3 | 0.2 | 0.4 | 0.1 | 0.2 | Binding of serum 1a to linear peptide (PEPSCAN-ELISA) [1]: 0.3; Binding of serum 1b to linear peptide (PEPSCAN-ELISA) [1]: 0.1; Binding of serum 2 to linear peptide (PEPSCAN-ELISA) [1]: 0.2; Binding of serum 6 to linear peptide (PEPSCAN-ELISA) [1]: 0.4; Binding of serum 37 to linear peptide (PEPSCAN-ELISA) [1]: 0.7; Binding of serum 62 to linear peptide (PEPSCAN-ELISA) [1]: 0.9; Binding of serum London to linear peptide (PEPSCAN-ELISA) [1]: 0.6; Binding of serum SARS-green to linear peptide (PEPSCAN-ELISA) [1]: 0.5; Binding of serum SARS-yellow to linear peptide (PEPSCAN-ELISA) [1]: 0.7; Binding of Control Serum Blood-Bank to Looped peptides [2]: 0.6; Binding of Control serum Blood-bank to linear peptides [2]: 1.0; Binding of Control serum LUMC to linear peptides [2]: 1.1; Binding of Control serum LUMC to looped peptides [2]: 0.6

From patent US20070128217A1 (priority 2003, published 2007)
